The target in series [1] is T1, GC-C (Homo sapiens, UniProt P25092). Put plainly: cell-based. The conditions noted are these: 30 min at 37° C., IBMX.
Series [2] has as its target T1, GC-C. The series is described as follows: biochemical. The class given is binding.
For series [3] the following is noted: after oral administration at therapeutic dose levels; cited from earlier work.

Structures are written as SMILES. Like-named read-outs stand apart in the source and are kept apart here. Where a SMILES comes first, the peptide text is derived from it. Bridges are numbered along the chain shown (N, C = ends).

T1 sequence (P25092 24-1073 limits assumed): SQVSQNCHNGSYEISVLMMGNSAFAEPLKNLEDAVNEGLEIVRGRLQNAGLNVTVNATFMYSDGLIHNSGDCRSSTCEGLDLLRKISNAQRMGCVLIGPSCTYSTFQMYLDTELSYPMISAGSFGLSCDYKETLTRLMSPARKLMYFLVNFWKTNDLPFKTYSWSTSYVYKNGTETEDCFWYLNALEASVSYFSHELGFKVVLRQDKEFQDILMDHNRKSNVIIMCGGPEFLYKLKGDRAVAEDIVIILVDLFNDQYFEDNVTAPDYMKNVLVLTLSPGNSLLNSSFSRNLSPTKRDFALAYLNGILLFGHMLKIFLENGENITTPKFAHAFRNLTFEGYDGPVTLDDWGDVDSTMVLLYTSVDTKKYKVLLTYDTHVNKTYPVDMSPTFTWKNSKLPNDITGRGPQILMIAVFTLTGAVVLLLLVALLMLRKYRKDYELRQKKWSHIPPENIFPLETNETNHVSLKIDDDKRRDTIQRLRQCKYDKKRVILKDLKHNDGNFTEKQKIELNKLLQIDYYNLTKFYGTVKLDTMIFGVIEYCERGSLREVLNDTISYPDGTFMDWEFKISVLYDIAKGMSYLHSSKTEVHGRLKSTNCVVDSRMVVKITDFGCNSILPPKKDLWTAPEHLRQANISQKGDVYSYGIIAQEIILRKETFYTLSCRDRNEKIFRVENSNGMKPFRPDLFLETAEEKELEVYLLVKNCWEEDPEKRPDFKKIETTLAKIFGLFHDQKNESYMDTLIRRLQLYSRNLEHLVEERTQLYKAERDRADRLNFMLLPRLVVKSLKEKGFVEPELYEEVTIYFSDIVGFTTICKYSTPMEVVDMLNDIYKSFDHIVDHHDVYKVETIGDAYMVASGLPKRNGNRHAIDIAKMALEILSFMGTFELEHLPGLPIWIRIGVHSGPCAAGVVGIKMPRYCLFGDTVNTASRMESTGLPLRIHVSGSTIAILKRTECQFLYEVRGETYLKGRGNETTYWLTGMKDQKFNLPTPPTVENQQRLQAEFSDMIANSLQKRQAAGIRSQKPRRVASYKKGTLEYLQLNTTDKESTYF

`CC(C)C[C@@H]1NC(=O)[C@H](CCC(=O)O)NC(=O)[C@@H]2CSSC[C@@H]3NC(=O)[C@H](C)NC(=O)[C@@H]4CCCN4C(=O)[C@H](CC(N)=O)NC(=O)[C@H](CSSC[C@H](NC(=O)[C@H](CC(=O)O)NC(=O)[C@H](CC(=O)O)NC(=O)[C@@H](N)CC(=O)O)C(=O)N2)NC(=O)[C@H](CSSC[C@@H](C(=O)N[C@@H](Cc2ccc(O)cc2)C(=O)O)NC(=O)CNC(=O)[C@H]([C@@H](C)O)NC3=O)NC1=O` [Peptide 17, DDDCCELCCNPACTGCY]: the EC50 at GC-C [1] (pH 5 (DMEM+20 mM MES), read-out: cGMP response in T84 cells EC50 nM pH 5) worked out at 12.9 nM; on GC-C [1] (pH 8 (DMEM+50 mM sodium bicarbonate), read-out: cGMP response in T84 cells EC50 nM pH 8), 4980 nM. In addition, the Ki came to 4.3 nM on GC-C [2] (Binding affinity for GC-C Ki (nM) pH 5) and 27.3 nM on GC-C [2] (Binding affinity for GC-C Ki (nM) pH 8).
`C[C@@H]1NC(=O)[C@@H]2CCCN2C(=O)[C@H](CC(N)=O)NC(=O)[C@@H]2CSSC[C@H](N)C(=O)N[C@H]3CSSC[C@H](NC1=O)C(=O)N[C@@H]([C@@H](C)O)C(=O)NCC(=O)N[C@H](C(=O)N[C@@H](Cc1ccc(O)cc1)C(=O)O)CSSC[C@H](NC(=O)[C@H](Cc1ccc(O)cc1)NC(=O)[C@H](CCC(=O)O)NC3=O)C(=O)N2` [linaclotide, Linaclotide] (H-CCEYCCNPACTGCY-OH; disulfide 1-6, 2-10, 5-13): the “levels of linaclotide seen systemically” value in series [3] is reported as “no detectable levels”.

As usually defined, the EC50 is the concentration at which the effect is half-maximal. The term Ki denotes the equilibrium dissociation constant of an inhibitor or competing ligand from its target. Low values mean tighter binding, high ones weaker binding.

(Values after patent publication US9527887B2 (priority 2011, dated 2016).)
